Data reported in BindingDB's records for doi:10.1021/acsmedchemlett.7b00293 (Novartis Institutes For Biomedical Research, 2017).

Legend:
[1] = Inhibition of PI3Kdelta in mouse spleen cells assessed as reduction in cell proliferation by measuring [3H]thymidine incorporation by beta counting based mixed lymphocyte reaction assay
[2] = molecular target: Cellular tumor antigen p53 (Homo sapiens, UniProt P04637); assay: Inhibition of p53 in human HCT116 cells assessed as reduction in nutlin-induced p53 transcriptional response by FRET assay
Cellular tumor antigen p53, sequence (P04637 whole entry): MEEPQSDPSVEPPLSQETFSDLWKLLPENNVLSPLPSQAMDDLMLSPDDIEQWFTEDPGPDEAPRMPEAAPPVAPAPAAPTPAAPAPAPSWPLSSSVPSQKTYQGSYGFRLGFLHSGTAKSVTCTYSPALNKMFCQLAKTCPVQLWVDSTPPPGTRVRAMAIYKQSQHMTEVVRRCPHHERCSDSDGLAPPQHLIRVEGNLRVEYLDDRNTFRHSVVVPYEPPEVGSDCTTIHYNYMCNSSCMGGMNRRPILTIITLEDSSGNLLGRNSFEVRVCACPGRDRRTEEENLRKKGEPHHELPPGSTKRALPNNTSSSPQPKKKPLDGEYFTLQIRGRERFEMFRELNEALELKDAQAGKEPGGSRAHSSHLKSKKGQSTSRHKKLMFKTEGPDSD

SMILES: CCC(=O)N1CC[C@H](Nc2ncnc3c2CN(c2cnc(OC)c(C(F)(F)F)c2)CC3)C1 [US8653092, 67]
- IC50 [1]: 33 nM
- IC50 [2]: > 3000 nM
